Measurements reported in patent US10785975B2, “Water and feed antimicrobial preservative” (priority 2009, dated 2020).
Each block holds one compound with its values, some of them ahead of it.

System: Salmonella typhimurium
Assay: Example 1: effect of pH buffering of acetic and propionic acid on antimicrobial activity in water
Type: cell-based
Settings: for MIC at 24 HR / MIC at 4 Hr: Minimum Inhibitory Concentrations, by linear regression over 0.025-0.1% acid solutions
Description: Propionic and acetic acids were buffered with ammonium hydroxide to pHs ranging from 1 to 7. Acid contents of the buffered solutions were determined by a weight to weight ratio calculation to obtain the same acid content in the test solutions. […] The pHs of the deionized water solutions were recorded and any problems with solubility noted.
100 ul of a nutrient broth culture of Salmonella typhimurium was added to each dilution tube. After addition, tubes were vortexed and allowed to stand. At 4 and 24 hours after addition of the inoculum, 100 ul of the solution was plated on Standard Plate agar (triplicate plates). Plates were incubated at 37° C. for 24 hours prior to enumeration. The minimum effective dose of each acid was determined by linear regression.

[1] = Product Conc. 0.025 (% acid solution in water)
[2] = Product Conc. 0.05 (% acid solution in water)
[3] = Product Conc. 0.075 (% acid solution in water)
[4] = Product Conc. 0.1 (% acid solution in water)

MIC at 24 HR (pH 1): 0.065
Compound: CC(=O)O [Acetic pH 1, Acetic acid]
Salmonella at time Interval 4 hr % reduction [1]: 41%
Salmonella at time Interval 4 hr cfu/g [1]: 883 cfu/g
Salmonella at time Interval 24 hr % reduction [1]: 91%
Salmonella at time Interval 24 hr cfu/g [1]: 107 cfu/g
Salmonella at time Interval 4 hr % reduction [2]: 50%
Salmonella at time Interval 4 hr cfu/g [2]: 750 cfu/g
Salmonella at time Interval 24 hr % reduction [2]: 99%
Salmonella at time Interval 24 hr cfu/g [2]: 7 cfu/g
Salmonella at time Interval 4 hr % reduction [3]: 59%
Salmonella at time Interval 4 hr cfu/g [3]: 617 cfu/g
Salmonella at time Interval 24 hr % reduction [3]: 99%
Salmonella at time Interval 24 hr cfu/g [3]: 17 cfu/g
Salmonella at time Interval 4 hr % reduction [4]: 65%
Salmonella at time Interval 4 hr cfu/g [4]: 520 cfu/g
Salmonella at time Interval 24 hr % reduction [4]: 99%
Salmonella at time Interval 24 hr cfu/g [4]: 7 cfu/g

MIC at 4 Hr (pH 2): 0.142
MIC at 24 HR (pH 2): 0.067
Compound: CC(=O)O [Acetic pH 2, Acetic acid]
Salmonella at time Interval 4 hr % reduction [1]: 39%
Salmonella at time Interval 4 hr cfu/g [1]: 920 cfu/g
Salmonella at time Interval 24 hr % reduction [1]: 86%
Salmonella at time Interval 24 hr cfu/g [1]: 170 cfu/g
Salmonella at time Interval 4 hr % reduction [2]: 46%
Salmonella at time Interval 4 hr cfu/g [2]: 817 cfu/g
Salmonella at time Interval 24 hr % reduction [2]: 96%
Salmonella at time Interval 24 hr cfu/g [2]: 50 cfu/g
Salmonella at time Interval 4 hr % reduction [3]: 55%
Salmonella at time Interval 4 hr cfu/g [3]: 673 cfu/g
Salmonella at time Interval 24 hr % reduction [3]: 98%
Salmonella at time Interval 24 hr cfu/g [3]: 20 cfu/g
Salmonella at time Interval 4 hr % reduction [4]: 55%
Salmonella at time Interval 4 hr cfu/g [4]: 670 cfu/g
Salmonella at time Interval 24 hr % reduction [4]: 99%
Salmonella at time Interval 24 hr cfu/g [4]: 17 cfu/g

MIC at 4 Hr (pH 4): 0.207
MIC at 24 HR (pH 4): 0.096
Compound: CC(=O)O [Acetic pH 4, Acetic acid]
Salmonella at time Interval 4 hr % reduction [1]: 29%
Salmonella at time Interval 4 hr cfu/g [1]: 1067 cfu/g
Salmonella at time Interval 24 hr % reduction [1]: 54%
Salmonella at time Interval 24 hr cfu/g [1]: 543 cfu/g
Salmonella at time Interval 4 hr % reduction [2]: 22%
Salmonella at time Interval 4 hr cfu/g [2]: 1167 cfu/g
Salmonella at time Interval 24 hr % reduction [2]: 66%
Salmonella at time Interval 24 hr cfu/g [2]: 407 cfu/g
Salmonella at time Interval 4 hr % reduction [3]: 27%
Salmonella at time Interval 4 hr cfu/g [3]: 1097 cfu/g
Salmonella at time Interval 24 hr % reduction [3]: 78%
Salmonella at time Interval 24 hr cfu/g [3]: 263 cfu/g
Salmonella at time Interval 4 hr % reduction [4]: 22%
Salmonella at time Interval 4 hr cfu/g [4]: 1167 cfu/g
Salmonella at time Interval 24 hr % reduction [4]: 84%
Salmonella at time Interval 24 hr cfu/g [4]: 183 cfu/g

MIC at 4 Hr (pH 5): 0.238
MIC at 24 HR (pH 5): 0.210
Compound: CC(=O)O [Acetic pH 5, Acetic acid]
Salmonella at time Interval 4 hr % reduction [1]: 16%
Salmonella at time Interval 4 hr cfu/g [1]: 1267 cfu/g
Salmonella at time Interval 24 hr % reduction [1]: 16%
Salmonella at time Interval 24 hr cfu/g [1]: 993 cfu/g
Salmonella at time Interval 4 hr % reduction [2]: 0%
Salmonella at time Interval 4 hr cfu/g [2]: 1533 cfu/g
Salmonella at time Interval 24 hr % reduction [2]: 26%
Salmonella at time Interval 24 hr cfu/g [2]: 873 cfu/g
Salmonella at time Interval 4 hr % reduction [3]: 9%
Salmonella at time Interval 4 hr cfu/g [3]: 1367 cfu/g
Salmonella at time Interval 24 hr % reduction [3]: 32%
Salmonella at time Interval 24 hr cfu/g [3]: 805 cfu/g
Salmonella at time Interval 4 hr % reduction [4]: 14%
Salmonella at time Interval 4 hr cfu/g [4]: 1300 cfu/g
Salmonella at time Interval 24 hr % reduction [4]: 49%
Salmonella at time Interval 24 hr cfu/g [4]: 597 cfu/g

Compound: CC(=O)O [Acetic pH 6, Acetic acid]
Salmonella at time Interval 4 hr % reduction [1]: 0%
Salmonella at time Interval 4 hr cfu/g [1]: 1500 cfu/g
Salmonella at time Interval 24 hr % reduction [1]: 1%
Salmonella at time Interval 24 hr cfu/g [1]: 1167 cfu/g
Salmonella at time Interval 4 hr % reduction [2]: 0%
Salmonella at time Interval 4 hr cfu/g [2]: 1767 cfu/g
Salmonella at time Interval 24 hr % reduction [2]: 0%
Salmonella at time Interval 24 hr cfu/g [2]: 1400 cfu/g
Salmonella at time Interval 4 hr % reduction [3]: 0%
Salmonella at time Interval 4 hr cfu/g [3]: 1667 cfu/g
Salmonella at time Interval 24 hr % reduction [3]: 0%
Salmonella at time Interval 24 hr cfu/g [3]: 1400 cfu/g
Salmonella at time Interval 4 hr % reduction [4]: 0%
Salmonella at time Interval 4 hr cfu/g [4]: 1633 cfu/g
Salmonella at time Interval 24 hr % reduction [4]: 0%
Salmonella at time Interval 24 hr cfu/g [4]: 1433 cfu/g

Compound: CC(=O)O [Acetic pH 7, Acetic acid]
Salmonella at time Interval 4 hr % reduction [1]: 0%
Salmonella at time Interval 4 hr cfu/g [1]: 1567 cfu/g
Salmonella at time Interval 24 hr % reduction [1]: 0%
Salmonella at time Interval 4 hr % reduction [2]: 0%
Salmonella at time Interval 4 hr cfu/g [2]: 1600 cfu/g
Salmonella at time Interval 24 hr % reduction [2]: 0%
Salmonella at time Interval 24 hr cfu/g [2]: 1433 cfu/g
Salmonella at time Interval 4 hr % reduction [3]: 2%
Salmonella at time Interval 4 hr cfu/g [3]: 1467 cfu/g
Salmonella at time Interval 24 hr % reduction [3]: 0%
Salmonella at time Interval 24 hr cfu/g [3]: 1433 cfu/g
Salmonella at time Interval 4 hr % reduction [4]: 0%
Salmonella at time Interval 4 hr cfu/g [4]: 1567 cfu/g
Salmonella at time Interval 24 hr % reduction [4]: 0%

Compound: CCC(=O)O [Propionic pH 1, Propionic acid]
MIC at 4 Hr (pH 1): 0.131
MIC at 24 HR (pH 1): 0.066
Salmonella at time Interval 4 hr % reduction [1]: 20%
Salmonella at time Interval 4 hr cfu/g [1]: 1200 cfu/g
Salmonella at time Interval 24 hr % reduction [1]: 89%
Salmonella at time Interval 24 hr cfu/g [1]: 133 cfu/g
Salmonella at time Interval 4 hr % reduction [2]: 39%
Salmonella at time Interval 4 hr cfu/g [2]: 923 cfu/g
Salmonella at time Interval 24 hr % reduction [2]: 97%
Salmonella at time Interval 24 hr cfu/g [2]: 37 cfu/g
Salmonella at time Interval 4 hr % reduction [3]: 65%
Salmonella at time Interval 4 hr cfu/g [3]: 530 cfu/g
Salmonella at time Interval 24 hr % reduction [3]: 98%
Salmonella at time Interval 24 hr cfu/g [3]: 23 cfu/g
Salmonella at time Interval 4 hr % reduction [4]: 70%
Salmonella at time Interval 4 hr cfu/g [4]: 450 cfu/g
Salmonella at time Interval 24 hr % reduction [4]: 99%
Salmonella at time Interval 24 hr cfu/g [4]: 10 cfu/g

Compound: CCC(=O)O [Propionic pH 2, Propionic acid]
MIC at 4 Hr (pH 2): 0.120
MIC at 24 HR (pH 2): 0.064
Salmonella at time Interval 4 hr % reduction [1]: 29%
Salmonella at time Interval 4 hr cfu/g [1]: 1067 cfu/g
Salmonella at time Interval 24 hr % reduction [1]: 94%
Salmonella at time Interval 24 hr cfu/g [1]: 70 cfu/g
Salmonella at time Interval 4 hr % reduction [2]: 51%
Salmonella at time Interval 4 hr cfu/g [2]: 733 cfu/g
Salmonella at time Interval 24 hr % reduction [2]: 99%
Salmonella at time Interval 24 hr cfu/g [2]: 10 cfu/g
Salmonella at time Interval 4 hr % reduction [3]: 68%
Salmonella at time Interval 4 hr cfu/g [3]: 477 cfu/g
Salmonella at time Interval 24 hr % reduction [3]: 99%
Salmonella at time Interval 24 hr cfu/g [3]: 13 cfu/g
Salmonella at time Interval 4 hr % reduction [4]: 75%
Salmonella at time Interval 4 hr cfu/g [4]: 380 cfu/g
Salmonella at time Interval 24 hr % reduction [4]: 99%
Salmonella at time Interval 24 hr cfu/g [4]: 7 cfu/g

Compound: CCC(=O)O [Propionic pH 4, Propionic acid]
MIC at 4 Hr (pH 4): 0.237
MIC at 24 HR (pH 4): 0.091
Salmonella at time Interval 4 hr % reduction [1]: 9%
Salmonella at time Interval 4 hr cfu/g [1]: 1367 cfu/g
Salmonella at time Interval 24 hr % reduction [1]: 48%
Salmonella at time Interval 24 hr cfu/g [1]: 615 cfu/g
Salmonella at time Interval 4 hr % reduction [2]: 20%
Salmonella at time Interval 4 hr cfu/g [2]: 1200 cfu/g
Salmonella at time Interval 24 hr % reduction [2]: 75%
Salmonella at time Interval 24 hr cfu/g [2]: 293 cfu/g
Salmonella at time Interval 4 hr % reduction [3]: 37%
Salmonella at time Interval 4 hr cfu/g [3]: 943 cfu/g
Salmonella at time Interval 24 hr % reduction [3]: 84%
Salmonella at time Interval 24 hr cfu/g [3]: 187 cfu/g
Salmonella at time Interval 4 hr % reduction [4]: 22%
Salmonella at time Interval 24 hr % reduction [4]: 86%
Salmonella at time Interval 24 hr cfu/g [4]: 163 cfu/g

Compound: CCC(=O)O [Propionic pH 5, Propionic acid]
MIC at 4 Hr (pH 5): 0.170
MIC at 24 HR (pH 5): 0.165
Salmonella at time Interval 4 hr % reduction [1]: 0%
Salmonella at time Interval 4 hr cfu/g [1]: >1505 cfu/g
Salmonella at time Interval 24 hr % reduction [1]: 33%
Salmonella at time Interval 24 hr cfu/g [1]: 793 cfu/g
Salmonella at time Interval 4 hr % reduction [2]: 7%
Salmonella at time Interval 4 hr cfu/g [2]: 1400 cfu/g
Salmonella at time Interval 24 hr % reduction [2]: 20%
Salmonella at time Interval 24 hr cfu/g [2]: 943 cfu/g
Salmonella at time Interval 4 hr % reduction [3]: 22%
Salmonella at time Interval 4 hr cfu/g [3]: 1167 cfu/g
Salmonella at time Interval 24 hr % reduction [3]: 47%
Salmonella at time Interval 24 hr cfu/g [3]: 630 cfu/g
Salmonella at time Interval 4 hr % reduction [4]: 46%
Salmonella at time Interval 4 hr cfu/g [4]: 817 cfu/g
Salmonella at time Interval 24 hr % reduction [4]: 53%
Salmonella at time Interval 24 hr cfu/g [4]: 557 cfu/g

Compound: CCC(=O)O [Propionic pH 6, Propionic acid]
Salmonella at time Interval 4 hr % reduction [1]: 0%
Salmonella at time Interval 4 hr cfu/g [1]: >1505 cfu/g
Salmonella at time Interval 24 hr % reduction [1]: 0%
Salmonella at time Interval 24 hr cfu/g [1]: 1450 cfu/g
Salmonella at time Interval 4 hr % reduction [2]: 7%
Salmonella at time Interval 4 hr cfu/g [2]: 1400 cfu/g
Salmonella at time Interval 24 hr % reduction [2]: 10%
Salmonella at time Interval 24 hr cfu/g [2]: 1067 cfu/g
Salmonella at time Interval 4 hr % reduction [3]: 0%
Salmonella at time Interval 4 hr cfu/g [3]: >1505 cfu/g
Salmonella at time Interval 24 hr % reduction [3]: 0%
Salmonella at time Interval 24 hr cfu/g [3]: 1233 cfu/g
Salmonella at time Interval 4 hr % reduction [4]: 0%
Salmonella at time Interval 4 hr cfu/g [4]: 1700 cfu/g
Salmonella at time Interval 24 hr % reduction [4]: 0%
Salmonella at time Interval 24 hr cfu/g [4]: 1333 cfu/g
